Test system: 362531-283-R-J2-PDC complex spheroid viability
Experiment: Anticancer human tumor 362531-283-R-J2-PDC patient-derived colon adenocarcinoma cell line growth inhibition [RAS]
Details: for IC50: curve of first compound; for viability, T/C: stronger effect = lower value
Outline: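 Agents were tested in combination matrices in half-log decrements from a top concentration at or near clinical Cmax (10 microM if undetermined). Targets were multi-cell spheroids of tumour lines plus HUVEC and MSC stromal cells.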

[1] = second compound 0.00316 µM, first compound 0.000949 µM
[2] = second compound 0.00316 µM, first compound 0.003 µM
[3] = second compound 0.00316 µM, first compound 0.00949 µM
[4] = second compound 0.00316 µM, first compound 0.03 µM
[5] = second compound 0.00316 µM, first compound 0.0949 µM
[6] = second compound 0.00316 µM, first compound 0.3 µM
[7] = second compound 0.01 µM, first compound 0.000949 µM
[8] = second compound 0.01 µM, first compound 0.003 µM
[9] = second compound 0.01 µM, first compound 0.00949 µM
[10] = second compound 0.01 µM, first compound 0.03 µM
[11] = second compound 0.01 µM, first compound 0.0949 µM
[12] = second compound 0.01 µM, first compound 0.3 µM
[13] = second compound 0.0316 µM, first compound 0.000949 µM
[14] = second compound 0.0316 µM, first compound 0.003 µM
[15] = second compound 0.0316 µM, first compound 0.00949 µM
[16] = second compound 0.0316 µM, first compound 0.03 µM
[17] = second compound 0.0316 µM, first compound 0.0949 µM
[18] = second compound 0.0316 µM, first compound 0.3 µM
[19] = second compound 0.1 µM, first compound 0.000949 µM
[20] = second compound 0.1 µM, first compound 0.003 µM
[21] = second compound 0.1 µM, first compound 0.00949 µM
[22] = second compound 0.1 µM, first compound 0.03 µM
[23] = second compound 0.1 µM, first compound 0.0949 µM
[24] = second compound 0.1 µM, first compound 0.3 µM
[25] = second compound 0.316 µM, first compound 0.000949 µM
[26] = second compound 0.316 µM, first compound 0.003 µM
[27] = second compound 0.316 µM, first compound 0.00949 µM
[28] = second compound 0.316 µM, first compound 0.03 µM
[29] = second compound 0.316 µM, first compound 0.0949 µM
[30] = second compound 0.316 µM, first compound 0.3 µM
[31] = second compound 1 µM, first compound 0.000949 µM
[32] = second compound 1 µM, first compound 0.003 µM
[33] = second compound 1 µM, first compound 0.00949 µM
[34] = second compound 1 µM, first compound 0.03 µM
[35] = second compound 1 µM, first compound 0.0949 µM
[36] = second compound 1 µM, first compound 0.3 µM
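Also: spheroids exposed to the agents for 7 days before readout.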
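For viability, T/C in this document: luminescence viability as percent of DMSO vehicle control wells.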

Work on `CC1(C)CCC(Nc2ncc(C(F)(F)F)c(-c3c[nH]c4c(P(C)(C)=O)c(C#N)ccc34)n2)CN1` (stereo unspecified) + C=CC(=O)N1CCN(c2nc(OCC3CCCN3C)nc3c(F)c(-c4nc(N)cc(C)c4C(F)(F)F)c(Cl)cc23)C(C)C1 yielded an IC50 (second compound 0.00316 µM) greater than 300 nM, an IC50 (second compound 0.01 µM) greater than 300 nM and an IC50 (second compound 0.0316 µM) greater than 300 nM. It also gave an IC50 (second compound 0.1 µM) greater than 300 nM, an IC50 (second compound 0.316 µM) greater than 300 nM and an IC50 (second compound 1 µM) greater than 300 nM. It also gave a viability, T/C [1] of 96.5%, a viability, T/C [2] of 104% and a viability, T/C [3] of 103%. The viability, T/C [4] was 100%, the viability, T/C [5] was 107% and the viability, T/C [6] was 99.1%. For the same compound, the viability, T/C [7] was 103%, the viability, T/C [8] was 112% and the viability, T/C [9] was 104%. For the same compound, the viability, T/C [10] was 98.8%, the viability, T/C [11] was 109% and the viability, T/C [12] was 101%. The viability, T/C [13] was 105%, the viability, T/C [14] was 105% and the viability, T/C [15] was 103%. For the same compound, the viability, T/C [16] was 98.7%, the viability, T/C [17] was 106% and the viability, T/C [18] was 96.5%. It also gave a viability, T/C [19] of 102%, a viability, T/C [20] of 105% and a viability, T/C [21] of 104%. For the same compound, the viability, T/C [22] was 103%, the viability, T/C [23] was 104% and the viability, T/C [24] was 107%. For the same compound, the viability, T/C [25] was 109%, the viability, T/C [26] was 103% and the viability, T/C [27] was 111%. For the same compound, the viability, T/C [28] was 98.6%, the viability, T/C [29] was 112% and the viability, T/C [30] was 93.5%. It also gave a viability, T/C [31] of 99.2%, a viability, T/C [32] of 101% and a viability, T/C [33] of 98.9%. It also gave a viability, T/C [34] of 108%, a viability, T/C [35] of 113% and a viability, T/C [36] of 105%.

`CCc1c2c(nc3ccc(O)cc13)-c1cc3c(c(=O)n1C2)COC(=O)[C@]3(O)CC` + C=CC(=O)N1CCN(c2nc(OCC3CCCN3C)nc3c(F)c(-c4nc(N)cc(C)c4C(F)(F)F)c(Cl)cc23)C(C)C1 gave an IC50 (second compound 0.00316 µM) of 24.6 nM, an IC50 (second compound 0.01 µM) of 24.2 nM and an IC50 (second compound 0.0316 µM) of 30.2 nM. The IC50 (second compound 0.1 µM) was 20.5 nM, the IC50 (second compound 0.316 µM) was 24.4 nM and the IC50 (second compound 1 µM) was 23.5 nM. For the same compound, the viability, T/C [1] was 89.9%, the viability, T/C [2] was 104% and the viability, T/C [3] was 61.3%. It also gave a viability, T/C [4] of 51.9%, a viability, T/C [5] of 31.2% and a viability, T/C [6] of 26.8%. For the same compound, the viability, T/C [7] was 95.5%, the viability, T/C [8] was 93.6% and the viability, T/C [9] was 84.6%. It also gave a viability, T/C [10] of 42.4%, a viability, T/C [11] of 29.5% and a viability, T/C [12] of 35.1%. The viability, T/C [13] was 96.2%, the viability, T/C [14] was 91.8% and the viability, T/C [15] was 72.7%. The viability, T/C [16] was 46.5%, the viability, T/C [17] was 37.3% and the viability, T/C [18] was 20.7%. It also gave a viability, T/C [19] of 111%, a viability, T/C [20] of 101% and a viability, T/C [21] of 54%. The viability, T/C [22] was 54%, the viability, T/C [23] was 33% and the viability, T/C [24] was 29.1%. The viability, T/C [25] was 87.2%, the viability, T/C [26] was 92.4% and the viability, T/C [27] was 71.5%. It also gave a viability, T/C [28] of 43.8%, a viability, T/C [29] of 37.1% and a viability, T/C [30] of 24.5%. For the same compound, the viability, T/C [31] was 99.6%, the viability, T/C [32] was 87.1% and the viability, T/C [33] was 71.9%. It also gave a viability, T/C [34] of 42.3%, a viability, T/C [35] of 33.3% and a viability, T/C [36] of 26.3%.

Work on `C=CC(=O)Nc1cc(Nc2nccc(-c3cn(C)c4ccccc34)n2)c(OC)cc1N(C)CCN(C)C` + CCn1c(-c2cc(N3CCN(C)CC3)cnc2C(C)OC)c2c3cc(ccc31)-c1csc(n1)CC(NC(=O)C1CC1C)C(=O)N1CCCC(N1)C(=O)OCC(C)(C)C2 yielded an IC50 (second compound 0.000949 µM) greater than 1000 nM, an IC50 (second compound 0.003 µM) greater than 1000 nM and an IC50 (second compound 0.00949 µM) of 606 nM. It also gave an IC50 (second compound 0.03 µM) of 464 nM, an IC50 (second compound 0.0949 µM) of 129 nM and an IC50 (second compound 0.3 µM) of less than 3.16 nM. It also gave a viability, T/C (second compound 0.000949 µM, first compound 0.00316 µM) of 87.5%, a viability, T/C (second compound 0.000949 µM, first compound 0.01 µM) of 104% and a viability, T/C (second compound 0.000949 µM, first compound 0.0316 µM) of 91.4%. It also gave a viability, T/C (second compound 0.000949 µM, first compound 0.1 µM) of 88%, a viability, T/C (second compound 0.000949 µM, first compound 0.316 µM) of 98.2% and a viability, T/C (second compound 0.000949 µM, first compound 1 µM) of 65.6%. The viability, T/C (second compound 0.003 µM, first compound 0.00316 µM) was 97.7%, the viability, T/C (second compound 0.003 µM, first compound 0.01 µM) was 94.6% and the viability, T/C (second compound 0.003 µM, first compound 0.0316 µM) was 94.6%. The viability, T/C (second compound 0.003 µM, first compound 0.1 µM) was 89.3%, the viability, T/C (second compound 0.003 µM, first compound 0.316 µM) was 91.9% and the viability, T/C (second compound 0.003 µM, first compound 1 µM) was 63.1%. For the same compound, the viability, T/C (second compound 0.00949 µM, first compound 0.00316 µM) was 93.3%, the viability, T/C (second compound 0.00949 µM, first compound 0.01 µM) was 115% and the viability, T/C (second compound 0.00949 µM, first compound 0.0316 µM) was 81.1%. For the same compound, the viability, T/C (second compound 0.00949 µM, first compound 0.1 µM) was 78.9%, the viability, T/C (second compound 0.00949 µM, first compound 0.316 µM) was 80.4% and the viability, T/C (second compound 0.00949 µM, first compound 1 µM) was 31.4%. For the same compound, the viability, T/C (second compound 0.03 µM, first compound 0.00316 µM) was 92.2%, the viability, T/C (second compound 0.03 µM, first compound 0.01 µM) was 91.8% and the viability, T/C (second compound 0.03 µM, first compound 0.0316 µM) was 83%. It also gave a viability, T/C (second compound 0.03 µM, first compound 0.1 µM) of 85.6%, a viability, T/C (second compound 0.03 µM, first compound 0.316 µM) of 69.6% and a viability, T/C (second compound 0.03 µM, first compound 1 µM) of 11.8%. For the same compound, the viability, T/C (second compound 0.0949 µM, first compound 0.00316 µM) was 81.3%, the viability, T/C (second compound 0.0949 µM, first compound 0.01 µM) was 75.4% and the viability, T/C (second compound 0.0949 µM, first compound 0.0316 µM) was 76.5%. The viability, T/C (second compound 0.0949 µM, first compound 0.1 µM) was 59.2%, the viability, T/C (second compound 0.0949 µM, first compound 0.316 µM) was 18.5% and the viability, T/C (second compound 0.0949 µM, first compound 1 µM) was 10.8%. For the same compound, the viability, T/C (second compound 0.3 µM, first compound 0.00316 µM) was 42.3%, the viability, T/C (second compound 0.3 µM, first compound 0.01 µM) was 38.4% and the viability, T/C (second compound 0.3 µM, first compound 0.0316 µM) was 32.7%. For the same compound, the viability, T/C (second compound 0.3 µM, first compound 0.1 µM) was 23%, the viability, T/C (second compound 0.3 µM, first compound 0.316 µM) was 10.8% and the viability, T/C (second compound 0.3 µM, first compound 1 µM) was 8.2%.
